The values that follow come from article PMC6010070, “Antinociceptive potency of a fluorinated cyclopeptide Dmt-c[D-Lys-Phe-p-CF3-Phe-Asp]NH2” (Journal of Enzyme Inhibition and Medicinal Chemistry, 2018).

Like-named read-outs stand apart in the source and are kept apart here. Bridge positions count the residues as written; N and C are the ends. Square brackets hold non-standard residues; d marks the D form. Peptide text beside a SMILES is read from it. Dmt = Cc1cc(O)cc(C)c1C[C@H](N)C(=O)O

One series is described as follows: Kinetic solubility assay. The format is physicochemical. The settings on record: PBS buffer, pH 7.4. The protocol: Kinetic solubility assay was performed using Multiscreen HTS Vacuum Manifold (Merck Millipore, Warsaw, Poland). Compounds for this test were prepared as 10 mM stock solutions in DMSO and diluted in a standard PBS buffer (pH = 7.4), to the final concentrations of 0.5 mM. The solutions were applied into a 96-well filter plate and incubated for 90 min at room temperature, while shaking at 40 g and then filtrated. The concentration of each compound was determined on the basis of the prepared calibration curve using the UV–VIS spectrophotometric method. According to the absorption spectra of the compounds the wavelength used for the measurements was 280 nm for both, C-36 and F-81.

The procedure of series [1]:
Parallel Artificial Membrane Permeability Assay (PAMPA) was performed using Multiscreen Filter Plate and Multiscreen Transport Receiver Plate (Merck Millipore, Warsaw, Poland). Tested, as well as reference compounds, were dissolved in 0.1 M PBS buffer containing 20% of ethanol, to the final concentration of 200 µM. A 300 µl aliquots of 0.1 M PBS solution (pH = 7.4) was dispensed into the wells of the […]. Then 1% n-dodecane solution of the brain polar lipid extract (Avanti Polar Lipids; Sigma Aldrich, Poznan, Poland) was prepared to investigate the blood–brain barrier (BBB) permeability. Aliquots of the obtained lipid solutions (5 µl) were dispensed on the membranes of wells of the donor plate and left to dry. […] A complete system, consisting of the receiver plate with inserted donor plate, was incubated at room temperature for 4 h, shaking at 40 g, to guarantee good solvent mixing.
The ability of the tested compounds to permeate the artificial membranes was classified according to the literature[33] as:
Artificial membrane permeability was assessed in the PAMPA assay and the permeability coefficient (Pe) was calculated from the following equation: Pe=C×-ln1-×Ca/Cr where C=Vd ×Va /(Vd+Va)×p×t
Membrane retention was analysed using mass balance between a compound left in the donor and acceptor compartments and calculated using the following equation: MB=Ca×Va+(Cd×Vd)/Cinitial×Vd where

A further series concerns Male CD-1 mice. In words: Hot-plate test after i.c.v. administration. The format is in vivo. The settings on record: hot-plate test, mice, i.c.v. An excerpt: Male CD-1 mice (Harlan, Italy) weighing 25–30 g were used to determine the anti-nociceptive activity of the cyclopeptides in the hot-plate test after i.c.v. injection. Animal studies and research protocols were approved by the Service for Biotechnology and Animal Welfare of the Istituto Superiore di Sanità and authorized by the Italian Ministry of Health, according to Legislative Decree 26/14 (protocol number: 198/2013-B, 14 August 2013), which implemented the European Directive 2010/63/EEC on laboratory animal protection. Animal welfare was routinely checked by veterinarians from the Service for Biotechnology and Animal Welfare.
The hot-plate test was performed as described earlier. The intracerebroventricular (i.c.v.) injections were performed in a volume of 10 µl/animal, in the left brain ventricle of manually immobilized mice with a Hamilton microsyringe (50 µl) connected to a needle (diameter 0.5 mm). Peptides were also administrated in mice intravenously (i.v.) in a volume of 1 ml/kg. All compounds used for i.c.v. and i.v. administration were dissolved in saline. A transparent plastic cylinder (14 cm diameter, 31 cm height) was used to confine the mouse on the heated (55 ± 0.5 °C) surface of the plate. The animals were placed on the hot plate 5 min after the i.c.v. injection of saline (control) or peptides and the latencies to paw licking, rearing and jumping were measured at 5, 10, 20, 30, 45, 60, 90, and 120 min after administration of a peptide. A cut-off time of 240 s was used to avoid tissue injury. The percentage of the maximal possible effect (%MPE) was calculated as: %MPE = (t1 − t0)/(t2 − t0) × 100, where t0: control latency, t1: test latency, and t2: cut-off time. The median antinociceptive dose (ED50) was calculated according to the method of Litchfield and Wilcox[36].

On the set-up of series [2]: method as in PMID 19995587. The note with it: i.v. ref 35; cited from earlier work.

For the compound `Cc1cc(O)cc(C)c1C[C@H](N)C(=O)N[C@@H]1CCCCNC(=O)C[C@@H](C(N)=O)NC(=O)[C@H](Cc2ccccc2)NC(=O)[C@H](Cc2ccccc2)NC1=O` [Peptide C-36, Dmt-c[D-Lys-Phe-Phe-Asp]NH2] (H-[Dmt][dK]FFD-NH2; lactam 2-5; N-terminus assumed), the solubility at 90 min is at least 500 µM in “Kinetic solubility assay” (read-out: Solubility Mean) and at least 0.36 mg/mL in “Kinetic solubility assay” (read-out: Solubility Mean (mg/ml)). Moreover, in series [1] (PAMPA, brain polar lipid extract, 200 µM, 4 h, room temperature, pH 7.4), the “BBB permeability Pe ± SD” value is at most 0.58. In addition, the “Classification (BBB permeation)” value in series [1] (PAMPA-BBB, classified by Pe) was “Low permeation (Pe < 2.0 – low permeation)”. Further, in series [1] (PAMPA-BBB, membrane retention), the “Mean (%) Mass balance ± SD” value was 97.87 ± 1.69%. The “ED50 (jumping response)” value in the series on Male CD-1 mice is given as 57.78 ng.

`Cn1c(=O)c2[nH]cnc2n(C)c1=O` [Theophylline, theophylline, reference compound]: in series [1] (PAMPA, pH 7.4), the “Mean (%) Mass balance ± SD” value is reported as 98.21 ± 3.65%.

As to Tyr-c[D-Lys-Phe-Phe-Asp]NH2, the “Ability to reach the brain after i.v. administration” value in series [2] is recorded as “could reach the brain after i.v. administration”.
